Among the data in US11634436B2, “Pyridine lactam compounds and methods of use thereof” (Genentech, Inc., priority 2018, dated 2023) are Ki values, retold here.

The test has as its target T1, human RIP1 kinase domain (2-375) (Homo sapiens, UniProt Q13546).
T1 construct: Purified human RIP1 kinase domain (2-375) (50 nM) derived from a baculovirus-infected insect cell expression system; made in house; host or cells: baculovirus-infected insect cells
T1 sequence (Q13546 2-375): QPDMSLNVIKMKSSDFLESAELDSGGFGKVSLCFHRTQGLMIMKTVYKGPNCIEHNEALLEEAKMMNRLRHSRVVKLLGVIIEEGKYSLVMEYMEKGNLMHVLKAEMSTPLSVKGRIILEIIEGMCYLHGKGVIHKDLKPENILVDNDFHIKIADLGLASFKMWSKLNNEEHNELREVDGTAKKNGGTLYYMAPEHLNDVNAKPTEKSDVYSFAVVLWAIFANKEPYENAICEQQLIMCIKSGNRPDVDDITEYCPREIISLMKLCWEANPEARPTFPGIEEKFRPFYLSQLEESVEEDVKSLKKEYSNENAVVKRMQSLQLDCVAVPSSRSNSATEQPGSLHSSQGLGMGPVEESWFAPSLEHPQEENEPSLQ
Kind of test: RIP1 kinase inhibition biochemical assay (Transcreener ADP, fluorescence polarization). The note with it: tight-binding apparent inhibition constant (Ki app, Morrison equation); 50 nM enzyme, 50 uM ATP, 2 hours incubation. On the procedure: RIP1 Kinase Inhibition Assays (Biochemical Assay)
The compounds of the present invention were tested for their capacity to inhibit RIP1K activity as described below.
Enzyme assay: The ability of the receptor interacting protein kinase (RIPK1) to catalyze the hydrolysis of adenosine-5′-triphosphate (ATP) is monitored using the Transcreener ADP (adenosine-5′-diphosphate) assay (BellBrook Labs). Purified human RIP1 kinase domain (2-375) (50 nM) derived from a baculovirus-infected insect cell expression system is incubated with test compounds for 2 hours in 50 mM Hepes buffer (pH 7.5) containing 30 mM MgCl2, 1 mM dithiothreitol, 50 uM ATP, 0.002% Brij-35, and 0.5% dimethyl sulfoxide (DMSO). Reactions are quenched by the addition of 1× Bell Brooks Stop buffer B (20 mM Hepes (ph7.5), 40 mM ethylenediaminetetraacetic acid and 0.02% Brij-35) containing an additional 12 mM EDTA and 55 ug/mL ADP2 antibody and 4 nM ADP-AlexaFluor® 633 tracer. The tracer bound to the antibody is displaced by the ADP generated during the RIP1K reaction, which causes a decrease in fluorescence polarization that is measured by laser excitation at 633 nm with a FP microplate reader M1000. Fractional activity was plotted against test article concentration. Using Genedata Screener software (Genedata; Base1, Switzerland), the data were fit to the tight-binding apparent inhibition constant (Ki^app) Morrison equation [Williams, J. W. and Morrison, J. F. (1979) The kinetics of reversible tight-binding inhibition. Methods Enzymol 63: 437-67]. The following equation was used to calculate fractional activity and Ki^app:
[formula] where [E]T and [I]T are the total concentrations of active enzyme and test article, respectively.
Exemplary compounds of the present invention are provided in Table 1 along with their physiochemical characterization and in vitro RIP1 kinase inhibitory activity data. “Method” in the first column of each table refers to the synthetic method(s) used to prepare each compound as shown in the Examples above. In certain examples, chiral column retention times (min) are provided for certain stereoisomers. Unless otherwise specified, the stereochemistry shown in each structure represents relative configuration of a single stereoisomer, and absolute configuration (i.e., “R” and/or “S”) is arbitrarily assigned. In some embodiments, where the Method is described to include the separation of stereoisomers, a single stereoisomer of a compound of Table 1 is provided.
On the technique in general: Fluorescence polarisation rises when a labelled molecule tumbles more slowly, as on binding a larger partner.

For `CC(C)n1ncc2cnc(C(=O)N[C@H]3COc4cccnc4N(C)C3=O)nc21` [Example 2, 1-isopropyl-N-[(3S)-5-methyl-4-oxo-2,3-dihydropyrido[3,2-b][1,4]oxazepin-3-yl]pyrazolo[3,4-d]pyrimidine-6-carboxamide], the Ki was 14 nM.
Next, `[2H]C([2H])([2H])N1C(=O)[C@@H](NC(=O)c2cc3n(n2)CCO[C@H]3c2ccccc2)COc2cccnc21` [Example 7, (4S)-4-phenyl-N-[(3S)-4-oxo-5-(trideuteriomethyl)-2,3-dihydropyrido[3,2-b][1,4]oxazepin-3-yl]-6,7-dihydro-4H-pyrazolo[5,1-c][1,4]oxazine-2-carboxamide]: 28 nM; `C[C@H]1Oc2cccnc2N(C)C(=O)[C@H]1NC(=O)c1cc2n(n1)CCO[C@H]2c1ccccc1` [Example 6, (4S)-4-phenyl-N-[(2R,3S)-2,5-dimethyl-4-oxo-2,3-dihydropyrido[3,2-b][1,4]oxazepin-3-yl]-6,7-dihydro-4H-pyrazolo[5,1-c][1,4]oxazine-2-carboxamide]: 7 nM.
Next, `CN1C(=O)[C@@H](NC(=O)c2cc3n(n2)CCO[C@H]3c2ccccc2)COc2cccnc21` (single isomer, unassigned) [Example 5]: 19 nM.
On to `CCC(F)(F)n1ncc2cnc(C(=O)N[C@H]3COc4cccnc4N(C)C3=O)cc21` [Example 12, 1-(1,1-difluoropropyl)-N-[(3S)-5-methyl-4-oxo-2,3-dihydropyrido[3,2-b][1,4]oxazepin-3-yl]pyrazolo [4,3-c]pyridine-6-carboxamide], for which the Ki turned out to be 5 nM.
With `CN1C(=O)[C@@H](NC(=O)c2cc3n(n2)CCO[C@H]3c2ccccc2F)COc2cccnc21` (single isomer, unassigned) [Example 3] the figure was 24 nM; with `CCC(F)(F)n1ncc2cnc(C(=O)N[C@H]3COc4cccnc4N(C)C3=O)nc21` [Example 8, 1-(1,1-difluoropropyl)-N-[(3S)-5-methyl-4-oxo-2,3-dihydropyrido[3,2-b][1,4]oxazepin-3-yl]pyrazolo [3,4-d]pyrimidine-6-carboxamide], 18 nM; with `CN1C(=O)[C@@H](NC(=O)c2cc3n(n2)[C@H](c2ccccc2)C[C@@H]3F)COc2cccnc21` (single isomer, unassigned) [Example 1], 5.2 nM.
Next, `CN1C(=O)[C@@H](NC(=O)c2ncc3cnn(C4CCCC4)c3n2)COc2cccnc21` [Example 9, 1-cyclopentyl-N-[(3S)-5-methyl-4-oxo-2,3-dihydropyrido[3,2-b][1,4]oxazepin-3-yl]pyrazolo [3,4-d]pyrimidine-6-carboxamide]: 11 nM; `CN1C(=O)[C@@H](NC(=O)c2cc3n(n2)[C@@H](c2ccccc2)C[C@H]3F)COc2ccccc21` (single isomer, unassigned) [Example 10]: 5400 nM; `CN1C(=O)[C@@H](NC(=O)c2cc3n(n2)[C@H](c2ccccc2)C[C@@H]3F)COc2ccccc21` (single isomer, unassigned) [Example 11]: 4.4 nM.
Next, `CN1C(=O)[C@@H](NC(=O)c2cc3n(n2)CCO[C@@H]3c2ccccc2F)COc2cccnc21` (single isomer, unassigned) [Example 4]: 950 nM.
